Where a chain is given by its changes, count along the chain named.
How the values were obtained:
[1] = system: BMP-responsive C2C12 mouse myoblast cells stimulated with BMP4; assay: BMP4 cell assay (Id1 promoter-firefly luciferase reporter); type: cell-based; settings: Mus musculus, C2C12, C2C12 cells, BMP4 50 ng/mL, overnight
Method: The BMP4 cell assay were carried out briefly as follows. Stably transfected BMP-responsive C2C12 mouse myoblast cells (containing the Idl promoter-firefly luciferase reporter) were seeded in 96-well plates and incubated overnight with the compounds and BMP4 (50 ng/mL). The cells were then lysed, and cell extracts were then subjected to the firefly luciferase assay using Steady-Glo luciferase assay kit (Promega). The results were normalized to cell titers, as measured using Cell Titer-Glo luminescence assay (Promega). […] Relative activity was quantified by the ratio of firefly to Renilla luciferase activities using the dual luciferase assay kit (Promega).

[2] = Intrinsic clearance, human; type: in vitro ADME; settings: human
[3] = Intrinsic clearance, mouse; type: in vitro ADME; settings: mouse
Protein binding, human = type: in vitro ADME
Protein binding, mouse = type: in vitro ADME
ALK1/ACVRL1 = ALK1/ACVRL1 (Homo sapiens, UniProt P37023); assay: Kinase assay (33P-ATP filter-binding), ALK1; type: biochemical; settings: read-out: Kinase Selectivity ALK1/ACVRL1
Chain of ALK1/ACVRL1 (P37023 22-503): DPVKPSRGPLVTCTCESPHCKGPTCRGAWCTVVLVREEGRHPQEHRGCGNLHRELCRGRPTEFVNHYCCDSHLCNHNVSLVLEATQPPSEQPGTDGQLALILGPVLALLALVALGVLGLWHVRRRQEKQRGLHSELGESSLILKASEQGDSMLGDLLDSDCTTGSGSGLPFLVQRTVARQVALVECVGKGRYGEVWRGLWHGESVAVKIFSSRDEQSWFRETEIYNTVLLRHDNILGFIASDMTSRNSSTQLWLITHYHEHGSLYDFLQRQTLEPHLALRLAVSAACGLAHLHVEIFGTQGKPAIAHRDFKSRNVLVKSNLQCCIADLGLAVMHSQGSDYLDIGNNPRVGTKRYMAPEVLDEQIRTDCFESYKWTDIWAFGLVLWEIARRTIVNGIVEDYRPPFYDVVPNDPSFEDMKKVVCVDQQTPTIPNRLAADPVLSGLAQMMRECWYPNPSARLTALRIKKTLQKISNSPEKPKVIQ
Method: (§1) The kinase assays were carried out briefly as follows. Substrate was prepared in Base Reaction Buffer (20 mM Hepes (pH 7.5), 10 mM MgCl2, 1 mM EGTA, 0.02% Brij35, 0.02 mg/ml BSA, 0.1 mM Na3VO4, 2 mM DTT, 1% DMSO). The indicated kinases was delivered into the substrate solution and allowed to gently mix. Next, the specific compound was delivered in DMSO into the kinase mixture by Acoustic technology (Echo550; nanoliter range), and allowed to incubate for 20 minutes at room temperature. Next, ^33P-ATP was delivered into the reaction mixture to initiate the reaction and allowed to incubate at room temperature. After 2 hours, the reactions were spotted onto P81 ion exchange paper and the kinase activity is detected by the filter-binding method.

ALK2/ACVR1 = molecular target: T1, ALK2/ACVR1 (Homo sapiens, UniProt Q04771); assay: Kinase assay (33P-ATP filter-binding), ALK2; type: biochemical; settings: 20 mM; read-out: Kinase Selectivity ALK2/ACVR1 (20 mM)
T1 sequence (Q04771 21-509): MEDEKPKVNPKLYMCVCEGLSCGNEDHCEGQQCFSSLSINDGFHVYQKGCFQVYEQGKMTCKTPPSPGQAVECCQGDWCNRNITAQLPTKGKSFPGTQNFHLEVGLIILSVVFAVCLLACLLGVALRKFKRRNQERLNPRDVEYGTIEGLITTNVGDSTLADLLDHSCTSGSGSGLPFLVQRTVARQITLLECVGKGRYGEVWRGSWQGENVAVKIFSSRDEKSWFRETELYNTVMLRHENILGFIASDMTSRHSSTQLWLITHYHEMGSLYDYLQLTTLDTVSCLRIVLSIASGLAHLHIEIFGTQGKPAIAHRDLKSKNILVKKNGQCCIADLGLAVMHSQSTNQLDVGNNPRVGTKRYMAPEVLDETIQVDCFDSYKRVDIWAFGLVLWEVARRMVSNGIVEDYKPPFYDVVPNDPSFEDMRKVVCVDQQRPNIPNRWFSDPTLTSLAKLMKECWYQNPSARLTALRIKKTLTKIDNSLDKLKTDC
Method: as §1

ALK2 (Q207D) = molecular target: T2, ALK2 (Q207D) (Homo sapiens, UniProt Q04771, Q207D); assay: Kinase assay (33P-ATP filter-binding), ALK2 Q207D; type: biochemical; settings: Q207D mutant, 20 mM; read-out: Kinase Selectivity ALK2 (Q207D, 20 mM)
T2 sequence (Q04771 21-509 Q207D): T1 sequence (Q04771 21-509) with Q187D
Method: as §1

ALK2 (R206H) = molecular target: T3, ALK2 (R206H) (Homo sapiens, UniProt Q04771, R206H); assay: Kinase assay (33P-ATP filter-binding), ALK2 R206H; type: biochemical; settings: R206H mutant, 20 mM; read-out: Kinase Selectivity ALK2 (R206H, 20 mM)
T3 sequence (Q04771 21-509 R206H): T1 sequence (Q04771 21-509) with R186H
Method: as §1

ALK3/BMPR1A = ALK3/BMPR1A (Homo sapiens, UniProt P36894); assay: Kinase assay (33P-ATP filter-binding), ALK3; type: biochemical; settings: 1 mM; read-out: Kinase Selectivity ALK3/BMPR1A (1 mM)
Chain of ALK3/BMPR1A (P36894 24-532): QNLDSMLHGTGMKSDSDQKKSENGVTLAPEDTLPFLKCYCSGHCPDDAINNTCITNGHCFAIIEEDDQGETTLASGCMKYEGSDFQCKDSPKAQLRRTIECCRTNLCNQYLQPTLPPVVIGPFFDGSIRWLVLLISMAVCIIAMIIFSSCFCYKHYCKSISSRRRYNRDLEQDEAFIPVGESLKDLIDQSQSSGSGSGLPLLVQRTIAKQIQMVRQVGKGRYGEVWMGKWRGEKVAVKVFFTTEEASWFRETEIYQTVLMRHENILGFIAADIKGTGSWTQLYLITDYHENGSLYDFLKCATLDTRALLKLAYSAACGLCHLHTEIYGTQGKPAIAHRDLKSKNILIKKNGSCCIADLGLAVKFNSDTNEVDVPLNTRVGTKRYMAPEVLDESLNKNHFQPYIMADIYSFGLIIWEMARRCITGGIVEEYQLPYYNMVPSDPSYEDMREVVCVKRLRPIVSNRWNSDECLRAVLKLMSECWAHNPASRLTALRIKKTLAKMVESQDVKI
Method: as §1

[4] = CL-Hep, value in parentheses, read-out: Intrinsic Clearance Human (CL-Hep)
[5] = read-out: Intrinsic Clearance Human
[6] = CL-Hep, value in parentheses, read-out: Intrinsic Clearance Mouse (CL-Hep)
[7] = read-out: Intrinsic Clearance Mouse

Row | SMILES | IC50 [1] [µM] | CLint scaled [2, 4] [mL/min/kg] | CLint scaled [2, 5] [mL/min/kg] | CLint scaled [3, 6] [mL/min/kg] | CLint scaled [3, 7] [mL/min/kg] | Protein Binding (% Free) Human (Protein binding, human) [% Free] | Protein Binding (% Free) Mouse (Protein binding, mouse) [% Free] | IC50 (ALK1/ACVRL1) [µM] | IC50 (ALK2/ACVR1) [µM] | IC50 (ALK2 (Q207D)) [µM] | IC50 (ALK2 (R206H)) [µM] | IC50 (ALK3/BMPR1A) [µM]
1 | Cc1cc(-c2cnc3cc(-c4ccc(C5CNCCN5)cc4)ccn23)c2ccccc2n1 (stereo not drawn) [Compound 12] | 0.0135 | < 10.7 | < 23.1 | < 32.9 | < 49.5 | 13.6 | 4.94 | – | – | – | – | –
2 | c1cnc2c(-c3cnc4cc(-c5ccc(C6CNCCN6)cc5)ccn34)ccnc2c1 (stereo not drawn) [Compound 34] | – | 12.3 | 29.6 | < 31.9 | < 49.5 | 39.4 | 21.2 | 0.0169 | 0.0062 | < 0.0051 | 0.0075 | < 0.0051
3 | Cc1cc(-c2cnc3cc(-c4ccc(C5COCCCN5)cc4)ccn23)c2cc(F)cc(F)c2n1 (stereo not drawn) [Compound 13] | – | 16.6 | 97.2 | < 32.9 | < 49.5 | 1.85 | 2.3 | 0.016 | < 0.0051 | < 0.0051 | < 0.0051 | < 0.0051
4 | c1cnc2scc(-c3cnc4cc(-c5ccc(C6CNCCN6)cc5)ccn34)c2c1 (stereo not drawn) [Compound 31] | – | < 11 | < 23.1 | 33.6 | 53.5 | 16.2 | 6.8 | 0.0307 | 0.0201 | < 0.0051 | 0.0206 | 0.0212
5 | Cc1cc(-c2cnc3cc(N4CC5(CCNCC5)C4)ccn23)c2cc(F)cc(F)c2n1 [Compound 24] | – | 14 | 46.3 | < 32.9 | < 49.5 | 0.75 | 1.08 | 1.25 | 0.0578 | 0.129 | 0.0583 | 0.0052
